Test results reported in ChEMBL document CHEMBL1909046, “DrugMatrix in vitro pharmacology data”.

Assays:
[1] = molecular target: T1, Muscarinic acetylcholine receptor M4 (Homo sapiens, UniProt P08173); assay type: cell membranes, CHO-K1, Membrane; settings: cho-k1; further: in other assays of this panel Not Active means under 50% inhibition at 10 µM
T1 sequence (P08173 whole entry): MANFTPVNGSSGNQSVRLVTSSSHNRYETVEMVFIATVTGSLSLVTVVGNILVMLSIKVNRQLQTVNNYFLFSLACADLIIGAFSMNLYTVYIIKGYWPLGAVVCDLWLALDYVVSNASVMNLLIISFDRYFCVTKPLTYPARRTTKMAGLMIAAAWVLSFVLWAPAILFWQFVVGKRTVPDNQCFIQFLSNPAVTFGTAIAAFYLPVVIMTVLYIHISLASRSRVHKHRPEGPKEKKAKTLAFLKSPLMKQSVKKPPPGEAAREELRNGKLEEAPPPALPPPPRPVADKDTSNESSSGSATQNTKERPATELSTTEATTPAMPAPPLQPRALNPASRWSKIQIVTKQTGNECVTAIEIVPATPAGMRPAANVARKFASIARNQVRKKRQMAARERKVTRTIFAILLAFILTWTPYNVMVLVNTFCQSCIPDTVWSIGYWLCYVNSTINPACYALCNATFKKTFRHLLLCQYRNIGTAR

Histamine H2 receptor = Histamine H2 receptor (Homo sapiens, UniProt P25021); assay type: cell membranes, CHO-K1, Membrane; settings: cho-k1; further: in other assays of this panel Not Active means under 50% inhibition at 10 µM
[2] = molecular target: Tyrosine-protein kinase Fyn (Homo sapiens, UniProt P06241); experiment: biochemical; assay type: cell-based, Insect cells; settings: insect cells;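 further: enzymatic inhibition of Fyn kinase activity measured with Poly(Glu:Tyr) as the phosphorylation substrate; in other assays of this panel Not Active means under 50% inhibition at 10 µM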
[3] = DRUGMATRIX: Glutamate, NMDA, Agonism radioligand binding (ligand: [3H] CGP-39653); assay type: cell membranes, Rattus norvegicus, Wistar, Cerebral cortex, Membrane; settings: Not Active = under 50% inhibition at 10 µM
Substance-K receptor = molecular target: T2, Substance-K receptor (Homo sapiens, UniProt P21452); assay type: cell membranes, CHO, Membrane; settings: cho; further: in other assays of this panel Not Active means under 50% inhibition at 10 µM
T2 sequence (P21452 whole entry): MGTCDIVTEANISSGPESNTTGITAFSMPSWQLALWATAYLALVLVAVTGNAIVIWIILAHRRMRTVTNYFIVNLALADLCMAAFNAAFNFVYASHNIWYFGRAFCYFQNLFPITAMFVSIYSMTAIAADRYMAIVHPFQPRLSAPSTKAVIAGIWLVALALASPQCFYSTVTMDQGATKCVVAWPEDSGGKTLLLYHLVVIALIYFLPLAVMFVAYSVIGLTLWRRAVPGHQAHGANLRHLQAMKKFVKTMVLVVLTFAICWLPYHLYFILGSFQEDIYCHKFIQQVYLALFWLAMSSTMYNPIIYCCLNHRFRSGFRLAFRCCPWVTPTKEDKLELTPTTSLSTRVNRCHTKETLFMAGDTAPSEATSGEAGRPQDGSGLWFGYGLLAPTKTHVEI

[4] = molecular target: T3, Muscarinic acetylcholine receptor M5 (Homo sapiens, UniProt P08912); assay type: cell membranes, CHO-K1, Membrane; settings: cho-k1; further: in other assays of this panel Not Active means under 50% inhibition at 10 µM
T3 sequence (P08912 whole entry): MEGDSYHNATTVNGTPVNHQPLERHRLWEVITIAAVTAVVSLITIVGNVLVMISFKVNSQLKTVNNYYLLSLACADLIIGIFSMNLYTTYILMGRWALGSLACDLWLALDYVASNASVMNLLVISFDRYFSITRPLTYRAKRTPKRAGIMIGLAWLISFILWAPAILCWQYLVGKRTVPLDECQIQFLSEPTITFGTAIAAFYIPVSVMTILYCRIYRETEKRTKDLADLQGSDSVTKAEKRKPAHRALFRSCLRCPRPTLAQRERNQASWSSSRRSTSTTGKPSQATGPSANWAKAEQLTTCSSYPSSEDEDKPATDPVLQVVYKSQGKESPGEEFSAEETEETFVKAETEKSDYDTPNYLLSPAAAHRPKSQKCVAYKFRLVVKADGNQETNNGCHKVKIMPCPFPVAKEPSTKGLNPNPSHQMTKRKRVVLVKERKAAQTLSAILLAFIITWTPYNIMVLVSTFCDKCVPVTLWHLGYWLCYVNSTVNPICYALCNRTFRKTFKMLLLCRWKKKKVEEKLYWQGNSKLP

[5] = DRUGMATRIX: Phosphodiesterase PDE4 enzyme inhibition (substrate: [3H]cAMP + cAMP); settings: u-937; Not Active = under 50% inhibition at 10 µM
Carbonic anhydrase 2 = Carbonic anhydrase 2 (Homo sapiens, UniProt P00918); experiment: DRUGMATRIX: Carbonic Anhydrase II enzyme inhibition (substrate: 4-Nitrophenyl acetate (4-NPA)); assay type: tissue-based, Erythrocyte; settings: erythrocyte; Not Active = under 50% inhibition at 10 µM
[6] = DRUGMATRIX: Serotonin (5-Hydroxytryptamine) 5-HT3 radioligand binding (ligand: [3H] GR-65630); assay type: cell membranes, Membrane; settings: hek293; Not Active = under 50% inhibition at 10 µM
[7] = molecular target: Sodium-dependent dopamine transporter (Homo sapiens, UniProt Q01959); experiment: DRUGMATRIX: Dopamine Transporter radioligand binding (ligand: [125I] RTI-55); assay type: cell membranes, CHO-K1, Membrane; settings: cho-k1; Not Active = under 50% inhibition at 10 µM
Mu-type opioid receptor = Mu-type opioid receptor (Homo sapiens, UniProt P35372); experiment: DRUGMATRIX: Opiate mu (OP3, MOP) radioligand binding (ligand: [3H] Diprenorphine); assay type: cell membranes, CHO-K1, Membrane; settings: cho-k1; Not Active = under 50% inhibition at 10 µM
[8] = DRUGMATRIX: Nicotinic Acetylcholine radioligand binding (ligand: [125I] Epibatidine); assay type: cell membranes, Membrane; settings: imr-32; Not Active = under 50% inhibition at 10 µM
[9] = molecular target: T4, Neuropeptide Y receptor type 1 (Homo sapiens, UniProt P25929); assay type: cell membranes, Membrane; settings: sk-n-mc; further: in other assays of this panel Not Active means under 50% inhibition at 10 µM
T4 sequence (P25929 whole entry): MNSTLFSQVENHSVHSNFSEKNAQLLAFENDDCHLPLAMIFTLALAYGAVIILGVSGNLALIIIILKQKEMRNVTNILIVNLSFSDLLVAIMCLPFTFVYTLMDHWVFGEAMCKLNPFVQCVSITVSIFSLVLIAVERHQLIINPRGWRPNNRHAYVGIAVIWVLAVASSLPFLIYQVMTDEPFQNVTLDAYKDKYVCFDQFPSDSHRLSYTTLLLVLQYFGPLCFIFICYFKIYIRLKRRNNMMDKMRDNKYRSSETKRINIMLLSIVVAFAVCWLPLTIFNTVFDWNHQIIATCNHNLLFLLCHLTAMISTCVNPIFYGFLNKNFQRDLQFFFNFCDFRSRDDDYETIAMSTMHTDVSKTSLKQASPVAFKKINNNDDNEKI

Chain of Mu-type opioid receptor (P35372 whole entry): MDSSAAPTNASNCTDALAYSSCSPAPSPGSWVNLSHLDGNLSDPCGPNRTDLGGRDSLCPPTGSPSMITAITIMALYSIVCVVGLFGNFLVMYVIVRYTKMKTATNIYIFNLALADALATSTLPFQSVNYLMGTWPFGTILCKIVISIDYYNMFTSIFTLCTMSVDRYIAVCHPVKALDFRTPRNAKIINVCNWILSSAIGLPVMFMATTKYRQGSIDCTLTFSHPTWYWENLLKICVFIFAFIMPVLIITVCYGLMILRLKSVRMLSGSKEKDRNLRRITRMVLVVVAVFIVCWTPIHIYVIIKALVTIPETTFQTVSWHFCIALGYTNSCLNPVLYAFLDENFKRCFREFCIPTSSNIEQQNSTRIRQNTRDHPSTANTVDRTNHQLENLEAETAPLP
Chain of Sodium-dependent dopamine transporter (Q01959 whole entry): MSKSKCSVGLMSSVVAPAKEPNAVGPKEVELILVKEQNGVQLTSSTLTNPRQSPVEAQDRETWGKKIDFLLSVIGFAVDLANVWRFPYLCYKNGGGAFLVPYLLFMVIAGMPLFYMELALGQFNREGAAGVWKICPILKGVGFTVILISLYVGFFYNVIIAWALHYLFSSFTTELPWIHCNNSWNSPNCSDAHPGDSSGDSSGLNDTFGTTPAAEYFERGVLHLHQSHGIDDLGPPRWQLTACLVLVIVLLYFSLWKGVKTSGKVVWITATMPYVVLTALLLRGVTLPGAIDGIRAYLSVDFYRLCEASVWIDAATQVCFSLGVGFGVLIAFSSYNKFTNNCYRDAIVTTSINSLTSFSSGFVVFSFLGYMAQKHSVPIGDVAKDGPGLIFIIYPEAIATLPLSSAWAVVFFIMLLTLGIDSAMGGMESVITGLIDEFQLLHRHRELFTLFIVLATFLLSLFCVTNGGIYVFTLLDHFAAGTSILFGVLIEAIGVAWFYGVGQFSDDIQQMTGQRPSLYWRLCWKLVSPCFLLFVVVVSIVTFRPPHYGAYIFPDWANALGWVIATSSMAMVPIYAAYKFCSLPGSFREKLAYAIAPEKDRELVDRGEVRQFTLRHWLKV
Chain of Histamine H2 receptor (P25021 whole entry): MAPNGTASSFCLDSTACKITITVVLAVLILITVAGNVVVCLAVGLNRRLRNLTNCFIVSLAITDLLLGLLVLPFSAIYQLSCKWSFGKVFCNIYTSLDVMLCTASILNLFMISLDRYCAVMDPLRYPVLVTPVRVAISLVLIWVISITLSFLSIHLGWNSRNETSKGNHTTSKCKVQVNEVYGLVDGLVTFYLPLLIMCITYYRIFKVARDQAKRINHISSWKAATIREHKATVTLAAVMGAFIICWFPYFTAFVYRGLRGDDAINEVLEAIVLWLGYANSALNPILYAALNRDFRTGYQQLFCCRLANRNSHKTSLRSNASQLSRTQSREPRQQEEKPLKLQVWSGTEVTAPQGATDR
Chain of Tyrosine-protein kinase Fyn (P06241 whole entry): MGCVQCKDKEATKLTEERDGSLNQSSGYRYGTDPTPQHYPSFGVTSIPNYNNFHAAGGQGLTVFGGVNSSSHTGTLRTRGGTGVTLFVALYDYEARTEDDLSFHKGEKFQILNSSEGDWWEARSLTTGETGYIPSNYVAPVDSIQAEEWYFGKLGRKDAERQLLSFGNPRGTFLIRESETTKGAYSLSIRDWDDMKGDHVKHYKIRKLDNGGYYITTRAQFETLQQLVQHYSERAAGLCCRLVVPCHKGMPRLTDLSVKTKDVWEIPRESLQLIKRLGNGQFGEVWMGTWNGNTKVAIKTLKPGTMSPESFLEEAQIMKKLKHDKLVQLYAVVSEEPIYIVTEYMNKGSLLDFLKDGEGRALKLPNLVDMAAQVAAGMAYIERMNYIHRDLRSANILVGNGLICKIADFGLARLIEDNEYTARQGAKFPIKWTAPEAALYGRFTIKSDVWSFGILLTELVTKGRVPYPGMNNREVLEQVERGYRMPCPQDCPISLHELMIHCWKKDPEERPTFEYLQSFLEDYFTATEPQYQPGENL

C[C@]12Cc3c[nH]nc3C[C@@H]1CC[C@@H]1[C@@H]2CC[C@@]2(C)[C@H]1CC[C@]2(C)O [STANOZOLOL]
Not Active: IC50 [1] | IC50 (Histamine H2 receptor) | IC50 [2] | IC50 [3] | Ki [3] | IC50 (Substance-K receptor) | IC50 [4] | IC50 [5] | Ki [5] | IC50 (Carbonic anhydrase 2) | IC50 [6] | Ki [6] | IC50 [7] | IC50 (Mu-type opioid receptor) | IC50 [8] | Ki [8] | IC50 [9]

CN(N=O)C(=O)N[C@@H](C=O)[C@@H](O)[C@H](O)[C@H](O)CO [STREPTOZOCIN]
Not Active: IC50 [1] | IC50 (Histamine H2 receptor) | IC50 [2] | IC50 [3] | Ki [3] | IC50 (Substance-K receptor) | IC50 [4] | IC50 [5] | Ki [5] | IC50 (Carbonic anhydrase 2) | IC50 [6] | Ki [6] | IC50 [7] | IC50 (Mu-type opioid receptor) | IC50 [8] | Ki [8] | IC50 [9]

Cc1cc(NS(=O)(=O)c2ccc(N)cc2)no1 [SULFAMETHOXAZOLE]
Not Active: IC50 [1] | IC50 (Histamine H2 receptor) | IC50 [2] | IC50 [3] | Ki [3] | IC50 (Substance-K receptor) | IC50 [4] | IC50 [5] | Ki [5] | IC50 (Carbonic anhydrase 2) | IC50 [6] | Ki [6] | IC50 [7] | IC50 (Mu-type opioid receptor) | IC50 [8] | Ki [8] | IC50 [9]

Nc1ccc(S(=O)(=O)Nc2ccnn2-c2ccccc2)cc1 [SULFAPHENAZOLE]
Not Active: IC50 [1] | IC50 (Histamine H2 receptor) | IC50 [2] | IC50 [3] | Ki [3] | IC50 (Substance-K receptor) | IC50 [4] | IC50 [5] | Ki [5] | IC50 (Carbonic anhydrase 2) | IC50 [6] | Ki [6] | IC50 [7] | IC50 (Mu-type opioid receptor) | IC50 [8] | Ki [8] | IC50 [9]

C=CC[C@@H]1/C=C(\C)C[C@H](C)C[C@H](OC)[C@H]2O[C@@](O)(C(=O)C(=O)N3CCCC[C@H]3C(=O)O[C@H](/C(C)=C/[C@@H]3CC[C@@H](O)[C@H](OC)C3)[C@H](C)[C@@H](O)CC1=O)[C@H](C)C[C@@H]2OC [TACROLIMUS ANHYDROUS]
Not Active: IC50 [1] | IC50 (Histamine H2 receptor) | IC50 [2] | IC50 [3] | Ki [3] | IC50 (Substance-K receptor) | IC50 [4] | IC50 [5] | Ki [5] | IC50 (Carbonic anhydrase 2) | IC50 [6] | Ki [6] | IC50 [7] | IC50 (Mu-type opioid receptor) | IC50 [8] | Ki [8] | IC50 [9]

CC1CN(c2cc3c(cc2F)c(=O)c(C(=O)O)cn3-c2ccc(F)cc2F)CCN1 (stereo not drawn) [TEMAFLOXACIN]
Not Active: IC50 [1] | IC50 (Histamine H2 receptor) | IC50 [2] | IC50 [3] | Ki [3] | IC50 (Substance-K receptor) | IC50 [4] | IC50 [5] | Ki [5] | IC50 (Carbonic anhydrase 2) | IC50 [6] | Ki [6] | IC50 [7] | IC50 (Mu-type opioid receptor) | IC50 [8] | Ki [8] | IC50 [9]

CC(C)(C)NCC(O)c1cc(O)cc(O)c1 (stereo not drawn) [TERBUTALINE]
Not Active: IC50 [1] | IC50 (Histamine H2 receptor) | IC50 [2] | IC50 [3] | Ki [3] | IC50 (Substance-K receptor) | IC50 [4] | IC50 [5] | Ki [5] | IC50 (Carbonic anhydrase 2) | IC50 [6] | Ki [6] | IC50 [7] | IC50 (Mu-type opioid receptor) | IC50 [8] | Ki [8] | IC50 [9]

CN(C)[C@@H]1C(O)=C(C(N)=O)C(=O)[C@@]2(O)C(O)=C3C(=O)c4c(O)cccc4[C@@](C)(O)[C@H]3C[C@@H]12 [TETRACYCLINE]
Not Active: IC50 [1] | IC50 (Histamine H2 receptor) | IC50 [2] | IC50 [3] | Ki [3] | IC50 (Substance-K receptor) | IC50 [4] | IC50 [5] | Ki [5] | IC50 (Carbonic anhydrase 2) | IC50 [6] | Ki [6] | IC50 [7] | IC50 (Mu-type opioid receptor) | IC50 [8] | Ki [8] | IC50 [9]

c1ccc2[nH]c(-c3cscn3)nc2c1 [THIABENDAZOLE]
Not Active: IC50 [1] | IC50 (Histamine H2 receptor) | IC50 [2] | IC50 [3] | Ki [3] | IC50 (Substance-K receptor) | IC50 [4] | IC50 [5] | Ki [5] | IC50 (Carbonic anhydrase 2) | IC50 [6] | Ki [6] | IC50 [7] | IC50 (Mu-type opioid receptor) | IC50 [8] | Ki [8] | IC50 [9]
